Data as given in patent US7479492B2, “Use combined 5-HT1A agonists and selective serotonin reuptake inhibitors” (Merck Patent GmbH, priority 2000, dated 2009).

Legend:
[1] = tested on: writhing response induced by phenylbenzoquinone (PBQ) or acetic acid; test: Phenylbenzoquinone and acetic writhing tests in mice; format: in vivo, mouse; settings: 30 mg/kg p.o., PBQ 1.25 mg/kg i.p. or acetic acid 0.5% i.p.
Method: 5. Phenylbenzoquinone and acetic writhing tests in mice follow the methods described by Hendershot et al (J. Pharmacol. Exp. Ther. 1959, 125: 237-240): Mice are injected with phenylbenzoquinone (PBQ) (1.25 mg/kg i.p.) or acetic acid (0.5% i.p.). This treatment induces a recognizable writhing response in control animals. The number of writhes is counted for 10 minutes beginning 5 minutes after injection of PBQ or acetic acid.

[2] = tested on: formalin-induced pain response (flinching); test: Formalin paw test in the mouse or rat; format: in vivo; settings: 30 mg/kg p.o.; intraplantar 5% formalin
Method: 1. Formalin paw test in the mouse or rat accorrding to Wheeler-Aceto et al., (Psychopharmacology 1991, 104: 35-44): Animals are given an intraplantar injection of 5% formalin (25 μl for the mouse, 50 μl for the rat) into the posterior left paw. This treatment induces a recognizable flinching response in control animals. The number of flinches is counted for 10 minutes, beginning immediately after injection of formalin (early phase) and again for 5 minutes in mice or 15 minutes in rats, beginning 20 minutes after the injection.

`Cl.N#Cc1ccc2[nH]cc(CCCCN3CCN(c4ccc5oc(C(N)=O)cc5c4)CC3)c2c1` [1-[4-(5-cyanoindol-3-yl)butyl]-4-(2-carbamoyl-benzofuran-5-yl)-piperazine hydrochloride] was tested, and the reduction of writhes [1] was 82% and the “reduction of the formalin-induced pain response” value [2] was 79%.
